Data from PubChem BioAssay AID2060887 (Molecular Pharmacology Branch, DTP, NCI, 2025).

System: 782815-120-R-J1-PDC complex spheroid viability
Experiment: Anticancer human tumor 782815-120-R-J1-PDC patient-derived colon adenocarcinoma cell line growth inhibition [RAS]
Conditions: for IC50: curve of first compound; for viability, T/C: stronger effect = lower value
Outline: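 Tumour cells grown as complex spheroids with HUVEC endothelial cells and mesenchymal stem cells, treated with RAS pathway inhibitor combinations. Each agent spans half-log steps from near clinical Cmax, or 10 microM where Cmax is unknown.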
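Note: spheroids exposed to compounds for 7 days before reading.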
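Throughout, for viability, T/C: 100% = DMSO vehicle control viability.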

## C=CC(=O)N1CCN(c2nc(OCC3CCCN3C)nc3c(F)c(-c4nc(N)cc(C)c4C(F)(F)F)c(Cl)cc23)C(C)C1 (centres undefined) + CCn1c(-c2cc(N3CCN(C)CC3)cnc2C(C)OC)c2c3cc(ccc31)-c1csc(n1)CC(NC(=O)C1CC1C)C(=O)N1CCCC(N1)C(=O)OCC(C)(C)C2
Second compound 0.000949 µM
  IC50: > 1000 nM
Second compound 0.003 µM
  IC50: > 1000 nM
Second compound 0.00949 µM
  IC50: < 3.16 nM
Second compound 0.03 µM
  IC50: < 3.16 nM
Second compound 0.0949 µM
  IC50: < 3.16 nM
Second compound 0.3 µM
  IC50: < 3.16 nM
Second compound 0.000949 µM, first compound 0.00316 µM
  viability, T/C: 82.5%
Second compound 0.000949 µM, first compound 0.01 µM
  viability, T/C: 74.3%
Second compound 0.000949 µM, first compound 0.0316 µM
  viability, T/C: 70%
Second compound 0.000949 µM, first compound 0.1 µM
  viability, T/C: 79.5%
Second compound 0.000949 µM, first compound 0.316 µM
  viability, T/C: 77.1%
Second compound 0.000949 µM, first compound 1 µM
  viability, T/C: 90%
Second compound 0.003 µM, first compound 0.00316 µM
  viability, T/C: 57.1%
Second compound 0.003 µM, first compound 0.01 µM
  viability, T/C: 56.9%
Second compound 0.003 µM, first compound 0.0316 µM
  viability, T/C: 57.9%
Second compound 0.003 µM, first compound 0.1 µM
  viability, T/C: 49.6%
Second compound 0.003 µM, first compound 0.316 µM
  viability, T/C: 55%
Second compound 0.003 µM, first compound 1 µM
  viability, T/C: 57.2%
Second compound 0.00949 µM, first compound 0.00316 µM
  viability, T/C: 31.1%
Second compound 0.00949 µM, first compound 0.01 µM
  viability, T/C: 32%
Second compound 0.00949 µM, first compound 0.0316 µM
  viability, T/C: 36.7%
Second compound 0.00949 µM, first compound 0.1 µM
  viability, T/C: 29.8%
Second compound 0.00949 µM, first compound 0.316 µM
  viability, T/C: 31.6%
Second compound 0.00949 µM, first compound 1 µM
  viability, T/C: 31%
Second compound 0.03 µM, first compound 0.00316 µM
  viability, T/C: 19.6%
Second compound 0.03 µM, first compound 0.01 µM
  viability, T/C: 22%
Second compound 0.03 µM, first compound 0.0316 µM
  viability, T/C: 17.9%
Second compound 0.03 µM, first compound 0.1 µM
  viability, T/C: 20.6%
Second compound 0.03 µM, first compound 0.316 µM
  viability, T/C: 18.1%
Second compound 0.03 µM, first compound 1 µM
  viability, T/C: 19.8%
Second compound 0.0949 µM, first compound 0.00316 µM
  viability, T/C: 16%
Second compound 0.0949 µM, first compound 0.01 µM
  viability, T/C: 14.3%
Second compound 0.0949 µM, first compound 0.0316 µM
  viability, T/C: 16.1%
Second compound 0.0949 µM, first compound 0.1 µM
  viability, T/C: 15.5%
Second compound 0.0949 µM, first compound 0.316 µM
  viability, T/C: 15.2%
Second compound 0.0949 µM, first compound 1 µM
  viability, T/C: 13.5%
Second compound 0.3 µM, first compound 0.00316 µM
  viability, T/C: 16.1%
Second compound 0.3 µM, first compound 0.01 µM
  viability, T/C: 16.3%
Second compound 0.3 µM, first compound 0.0316 µM
  viability, T/C: 15.6%
Second compound 0.3 µM, first compound 0.1 µM
  viability, T/C: 16.5%
Second compound 0.3 µM, first compound 0.316 µM
  viability, T/C: 16.2%
Second compound 0.3 µM, first compound 1 µM
  viability, T/C: 13.6%

## CC1(C)CCC(Nc2ncc(C(F)(F)F)c(-c3c[nH]c4c(P(C)(C)=O)c(C#N)ccc34)n2)CN1 (centres undefined) + CCn1c(-c2cc(N3CCN(C)CC3)cnc2C(C)OC)c2c3cc(ccc31)-c1csc(n1)CC(NC(=O)C1CC1C)C(=O)N1CCCC(N1)C(=O)OCC(C)(C)C2
Second compound 0.000949 µM
  IC50: 14.6 nM
Second compound 0.003 µM
  IC50: 2.4 nM
Second compound 0.00949 µM
  IC50: < 0.949 nM
Second compound 0.03 µM
  IC50: < 0.949 nM
Second compound 0.0949 µM
  IC50: < 0.949 nM
Second compound 0.3 µM
  IC50: < 0.949 nM
Second compound 0.000949 µM, first compound 0.000949 µM
  viability, T/C: 65.1%
Second compound 0.000949 µM, first compound 0.003 µM
  viability, T/C: 61.3%
Second compound 0.000949 µM, first compound 0.00949 µM
  viability, T/C: 54.6%
Second compound 0.000949 µM, first compound 0.03 µM
  viability, T/C: 43%
Second compound 0.000949 µM, first compound 0.0949 µM
  viability, T/C: 36.9%
Second compound 0.000949 µM, first compound 0.3 µM
  viability, T/C: 39.2%
Second compound 0.003 µM, first compound 0.000949 µM
  viability, T/C: 52.9%
Second compound 0.003 µM, first compound 0.003 µM
  viability, T/C: 54%
Second compound 0.003 µM, first compound 0.00949 µM
  viability, T/C: 44.6%
Second compound 0.003 µM, first compound 0.03 µM
  viability, T/C: 31.3%
Second compound 0.003 µM, first compound 0.0949 µM
  viability, T/C: 34.4%
Second compound 0.003 µM, first compound 0.3 µM
  viability, T/C: 34.2%
Second compound 0.00949 µM, first compound 0.000949 µM
  viability, T/C: 30.3%
Second compound 0.00949 µM, first compound 0.003 µM
  viability, T/C: 30.4%
Second compound 0.00949 µM, first compound 0.00949 µM
  viability, T/C: 25.7%
Second compound 0.00949 µM, first compound 0.03 µM
  viability, T/C: 22.8%
Second compound 0.00949 µM, first compound 0.0949 µM
  viability, T/C: 19.2%
Second compound 0.00949 µM, first compound 0.3 µM
  viability, T/C: 23.6%
Second compound 0.03 µM, first compound 0.000949 µM
  viability, T/C: 18.7%
Second compound 0.03 µM, first compound 0.003 µM
  viability, T/C: 18.3%
Second compound 0.03 µM, first compound 0.00949 µM
  viability, T/C: 15.3%
Second compound 0.03 µM, first compound 0.03 µM
  viability, T/C: 14%
Second compound 0.03 µM, first compound 0.0949 µM
  viability, T/C: 13%
Second compound 0.03 µM, first compound 0.3 µM
  viability, T/C: 13.6%
Second compound 0.0949 µM, first compound 0.000949 µM
  viability, T/C: 15.6%
Second compound 0.0949 µM, first compound 0.003 µM
  viability, T/C: 15.6%
Second compound 0.0949 µM, first compound 0.00949 µM
  viability, T/C: 9.83%
Second compound 0.0949 µM, first compound 0.03 µM
  viability, T/C: 10.4%
Second compound 0.0949 µM, first compound 0.0949 µM
  viability, T/C: 10.7%
Second compound 0.0949 µM, first compound 0.3 µM
  viability, T/C: 8.29%
Second compound 0.3 µM, first compound 0.000949 µM
  viability, T/C: 16.3%
Second compound 0.3 µM, first compound 0.003 µM
  viability, T/C: 13.9%
Second compound 0.3 µM, first compound 0.00949 µM
  viability, T/C: 12.5%
Second compound 0.3 µM, first compound 0.03 µM
  viability, T/C: 9.35%
Second compound 0.3 µM, first compound 0.0949 µM
  viability, T/C: 7.69%
Second compound 0.3 µM, first compound 0.3 µM
  viability, T/C: 7.08%
